Experimental data taken from patent publication US8383816B2, “Aryl-quinolyl compounds and their use” (Cancer Research Technology Limited, priority 2008, dated 2013).
Where “and” joins values, the source holds several entries; their conditions need not be identical. Equal values may be shown once.

Legend:
B-RAF = B-RAF (Homo sapiens, UniProt P15056, V600E); test: DELFIA Kinase Assay; type: biochemical; conditions: 100 μM ATP
Description: Biological Methods—DELFIA Kinase Assay
Compounds were assessed by a kinase assay performed according to the following protocol.
DELFIA Kinase Buffer (DKB):
DKB1 (DKB with B-RAF and MEK Protein):
Combine 4950 μL of DKB and 50 μL of 2.5 mg/ml GST-MEK stock (to give […] of MEK per 40 μL). Then add 22.5 μL of B-RAF to give ˜0.2 μL of B-RAF per 40 μL.
DKB2 (DKB with MEK Protein):
Combine 4950 μL of DKB and 50 μL of 2.5 mg/ml GST-MEK stock (to give 1 mg of MEK per 40 μL). Use 500 μL of this for the blow out (BO) and the empty vector (EV) control.
100 mM stock, dilute to 500 μM to give 100 μM final concentration in assay.
Inhibitors (Test Compounds):
Phospho-MEK½ CST #9121S diluted 1:1000 in DELFIA assay buffer (AB). Preincubate antibody in the AB for 30 minutes at room temperature prior to use.
Anti-rabbit-Eur labelled secondary Perkin Elmer #AD0105 diluted 1:1000 in DELFIA assay buffer (AB). Preincubate antibody in the AB for 30 minutes at room temperature prior to use. (Primary and secondary antibodies were incubated together.)
1. Preblock wells with 5% milk in TBS for 1 hour.
2. Wash wells with 3× with 200 μL TBS.
3. Plate out 40 μL of DKB1 for all inhibitors (test compounds), DMSO control, and optionally other control compounds.
4. Plate out 40 μL of DKB2 for BO and EV wells.
5. Add inhibitors (test compounds) at 0.5 μL per well according to desired plate layout.
6. Add 0.5 μL DMSO to vehicle control wells.
7. Add 2 μL of B-RAF to BO and EV wells.
8. Pre-incubate with inhibitors (test compounds) for 10 minutes at room temperature with shaking.
9. Add 10 μL of 500 μM ATP stock, in DKB, to give 100 μM assay concentration.
10. Seal plates with TopSeal and incubate at room temperature with shaking for 45 minutes.
11. Wash plates 3× with 200 μL 0.1% Tween20/Water to terminate reaction.
12. Add 50 μL per well of antibody mix and incubate for 1 hour at room temperature with shaking.
13. Wash plates 3× with 200 μL 0.1% Tween20/Water.
14. Add 100 μL DELFIA enhancement solution per well, cover in foil, and incubate at room temperature for 30 minutes with shaking.
15. Read on Victor using Europium protocol.
(§1) Values for the blank (Empty Vector) are subtracted from all values. The DMSO controls are set as 100% activity and assay points (the response) are calculated as a percentage of the DMSO control. Data are plotted using Graphpad Prism software and a non-linear regression line is calculated using a variable slope sigmoidal dose-response equation (Y=Bottom+(Top−Bottom)/(1+10^((LogEC50−X)*HillSlope)) where X is the logarithm of concentration. Y is the response). The IC50 generated by this procedure is the concentration of the drug that produces a percentage control fluorescence value midway between the saturation, and zero-effect plateaus. Three independent assays are usually performed and the mean IC50 is reported.

WM266.4 melanoma cells = test: SRB Cell Proliferation Assay (SRB GI50); type: cell-based; conditions: Homo sapiens, WM 266-4, 144 h, 6 days growth
Description: Biological Methods—SRB Cell Proliferation Assay (SRB GI50)
Cultures of WM266.4 melanoma cells are routinely cultured in DMEM/10% foetal bovine serum, at 37° C., in 5% CO2 water saturated atmosphere. Cultures are maintained in exponential growth phase by sub-culturing before having become confluent (3-5 day intervals). Single cell suspensions are prepared by harvesting an 80 cm^2 tissue culture flask with 5 mL commercial trypsin EDTA. After 5 minutes, the detached cells are mixed with 5 mL fully complemented culture medium and centrifugally pelleted (1000 rpm for 7 minutes). After aspirating the supernatant, the cell pellet is re-suspended in 10 mL fresh medium and the cells fully disaggregated by drawing the whole volume up/down 5 times through a 19-gauge needle. The concentration of the cells is determined using a haemocytometer (1/10 dilution). A suitable volume to give at least a 2-fold excess for the number of tests being conducted, typically 100-200 mL, is prepared by diluting the cell suspension to 10,000/mL, and 100 μL/well dispensed into 96 well plates using a programmable 8-channel peristaltic pump, giving 1000 cells/well, leaving column 12 blank. The plates are returned to the incubator for 24 hours to allow the cells to re-attach.
The compounds being tested are prepared at 20 mM in dimethylsulphoxide. Aliquots (200 μL) are diluted into 20 mL culture medium giving 200 μM, and 10 serial dilutions of 3× performed by transferring 5 mL to 10 mL. Aliquots (100 μL) of each dilution are added to the wells, using an 8-channel pipettor, thus performing a final further 2× dilution, and giving doses ranging from 100 μM to 0.005 μM. Column 11 receives plain culture medium only. Each compound is tested in quadruplicate, each replicate being the average of four wells, and two plates per compound.
After a further 6 days growth, the plates are emptied, and the cells are fixed in 10% trichloroacteic acid for 10 minutes on ice. After thorough rinsing in running tap water, the plates are dried, and stained by adding 50 μL of a solution of 0.1% sulphorhodamine-B in 1% acetic acid, for 10 minutes at room temperature. The stain is poured out and the plates thoroughly rinsed under a stream of 1% acetic acid, thus removing unbound stain, and dried. The bound stain is taken into solution by addition of 150 μL Tris buffer pH 8, followed by 10 minutes on a plate-shaker (approximately 500 rpm). The absorbance at 540 nm in each well (being proportional to the number of cells present) is determined using a plate reader.
After averaging the results in rows A-D and E-H, the blank value (row 12) is subtracted, and results expressed as percentage of the untreated value (row 11). […] The GI50 generated by this procedure is the concentration of the drug that produces a percentage control A540 midway between the saturation, and zero-effect plateaus.

pERK = test: Cell Based Phospho-ERK Assay; conditions: 6 h, cells incubated with test compound for 6 hours
Description: Biological Methods—Cell Based Phosho-ERK Assay
Compounds were assessed using a cell-based assay which was performed according to the following protocol.
Plate out 16,000 cells/well in 99 μL medium in a 96-well plate.
1. Add 1 μL inhibitor to the cells […].
2. Incubate the cells with test compound for 6 hours at 37° C.
3. Aspirate off the solution from all of the wells.
4. Fixate the cells with 100 μL 4% formaldehyde/0.25% Triton X-100 PBS per well.
5. Incubate the plate for 1 hour at 4° C.
6. Aspirate off the fixing solution and add 300 μL TBS per well.
7. Leave the plate overnight at 4° C.
1. Wash the plate 2× with 200 μL PBS per well.
2. Block with 100 μL 5% dried milk in TBS.
3. Incubate the plate for 20 minutes at 37° C.
4. Wash the plate 2× with 0.1% tween/H2O.
5. Add 50 μL of 3 μg/mL primary antibody pERK (Sigma M8159), diluted in 5% milk powder/TBS, to each well.
6. Incubate the plate for 2 hours at 37° C.
7. Wash the plate 3× with 0.1% tween/H2O.
8. Add 50 μL of 0.45 μg/mL secondary Europium-labelled anti-mouse antibody (Perkin Elmer) to each well.
9. Incubate the plate for 1 hour at 37° C.
10. Wash the plate 3× with 0.1% tween/H2O.
11. Add 100 μL enhancement solution (Perkin Elmer) to each well.
12. Leave the plate for approximately 10 minutes at room temperature before gently shaking the plate.
13. Read Europium Time Resolved Fluorescence in Victor2.
14. Wash the plate 2× with 0.1% tween/H2O.
15. Measure the protein concentration with BCA (Sigma) by adding 200 μL of solution per well.
16. Incubate the plate for 30 minutes at 37° C.
17. Read absorbance levels at 570 nm in a plate reader.
Note that Europium counts are normalised for protein levels by dividing counts by absorbance.
as §1, with “(no cells)” for “(Empty Vector)”

B-RAF, sequence (P15056 whole entry V600E): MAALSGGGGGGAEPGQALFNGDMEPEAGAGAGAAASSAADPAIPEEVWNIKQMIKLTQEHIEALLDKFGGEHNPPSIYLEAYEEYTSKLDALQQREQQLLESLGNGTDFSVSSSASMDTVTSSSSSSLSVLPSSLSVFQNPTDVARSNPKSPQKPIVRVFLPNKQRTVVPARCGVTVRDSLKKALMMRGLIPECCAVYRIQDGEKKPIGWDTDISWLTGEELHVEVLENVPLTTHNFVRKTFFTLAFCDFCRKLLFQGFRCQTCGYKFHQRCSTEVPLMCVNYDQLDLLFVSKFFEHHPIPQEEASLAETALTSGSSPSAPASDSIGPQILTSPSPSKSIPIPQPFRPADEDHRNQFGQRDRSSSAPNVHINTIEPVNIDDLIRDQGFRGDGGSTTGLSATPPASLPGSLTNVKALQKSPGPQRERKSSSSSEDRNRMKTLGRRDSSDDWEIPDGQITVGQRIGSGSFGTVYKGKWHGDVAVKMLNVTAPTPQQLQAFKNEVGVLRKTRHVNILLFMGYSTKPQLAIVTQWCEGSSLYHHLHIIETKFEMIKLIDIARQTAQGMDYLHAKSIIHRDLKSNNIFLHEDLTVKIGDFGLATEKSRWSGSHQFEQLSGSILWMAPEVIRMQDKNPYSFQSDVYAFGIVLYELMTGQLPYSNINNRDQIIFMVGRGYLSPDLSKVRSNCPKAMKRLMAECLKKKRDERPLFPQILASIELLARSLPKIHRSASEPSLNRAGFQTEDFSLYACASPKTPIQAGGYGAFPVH

| SMILES | IC50 (B-RAF) | GI50 (WM266.4 melanoma cells) [µM] | IC50 (pERK) [µM] |
| --- | --- | --- | --- |
| O=C(Nc1cc(C(F)(F)F)ccc1F)Nc1ccc(Oc2ccnc3[nH]c(=O)[nH]c23)c2ncccc12 [AA-001, 4-[(5-Amino-quinolinyl-8-oxy)carbonylamino-(2-fluoro-5-trifloromethylphenyl)]-pyridin-5,6-imidazolone] | ≤ 1000 nM | ≤ 10 | – |
| O=C(Nc1cccc(SC(F)(F)F)c1)Nc1ccc(Oc2ccnc3[nH]c(=O)[nH]c23)c2cccnc12 [AA-009, 4-[(5-Oxy-quinolinyl-8-amino)carbonylamino-(3-trifluoromethylthio-phenyl)]-pyridin-5,6-imidazolone] | ≤ 1000 nM | ≤ 10 | ≤ 10 |
| Cn1c(=O)[nH]c2nccc(Oc3ccc(NC(=O)Nc4cc(C(C)(C)C)nn4-c4ccccc4)c4ncccc34)c21 [AA-012, 4-[(5-Oxy-quinolinyl-8-amino)carbonyl-amino-(1-N-phenyl-3-t-butyl-pyrazol-5-yl)]-pyridin-5-N-methyl,6-imidazolone] | ≤ 1000 nM and 1000 nM | – | – |
| Cc1ccc(-n2nc(C(C)(C)C)cc2NC(=O)Nc2ccc(Oc3ccnc4c3[nH]c(=O)n4C)c3cccnc23)cc1 [AA-015] | – | ≤ 10 | ≤ 10 |
| Cn1c(=O)[nH]c2c(Oc3ccc(NC(=O)Nc4cc(C(C)(C)C)nn4-c4ccccc4)c4ncccc34)ccnc21 [AA-016] | – | ≤ 10 | ≤ 10 |
| Cc1ccc(-n2nc(C(C)(C)C)cc2NC(=O)Nc2ccc(Oc3ccnc4[nH]c(=O)c(C)nc34)c3cccnc23)cc1 [BB-002, 5-[(8-Amino-quinolinyl-5-oxy)carbonylamino-5-(1-N-p-tolyl-3-t-butyl-imidazolyl)]-pyridin-[2,3]-3-methylpyrazin-2-one] | – | ≤ 10 | ≤ 10 |
| CC(C)(C)c1cc(NC(=O)Nc2ccc(Oc3ccnc4ncc(=O)[nH]c34)c3cccnc23)n(-c2ccccc2)n1 [BB-010] | – | ≤ 10 | ≤ 10 |

Now from value to compound:

| IC50 (B-RAF) | GI50 (WM266.4 melanoma cells) [µM] | IC50 (pERK) [µM] | SMILES |
| --- | --- | --- | --- |
| ≤ 1000 nM | – | – | O=C(Nc1ccc(Cl)c(C(F)(F)F)c1)Nc1ccc(Oc2ccnc3[nH]c(=O)[nH]c23)c2ncccc12 [AA-002, 4-[(8-Oxy-quinolinyl-5-amino)carbonylamino-(3-trifluoromethyl-4-chloro-phenyl)]-pyridin-5,6-imidazolone] |
| ≤ 1000 nM | ≤ 10 | ≤ 10 | CC(C)(C)c1cc(NC(=O)Nc2ccc(Oc3ccnc4[nH]c(=O)[nH]c34)c3cccnc23)n(-c2ccccc2)n1 [AA-005, 4-[(5-Oxy-quinolinyl-8-amino)carbonyl-amino-(1-N-phenyl-3-t-butyl-pyrazol-5-yl)]-pyridin-5,6-imidazolone] |
| – | ≤ 10 | ≤ 10 | CC(C)(C)c1cc(NC(=O)Nc2ccc(Oc3ccnc4[nH]c(=O)[nH]c34)c3ncccc23)n(-c2ccccc2)n1 [AA-006, 4-[(8-Oxy-quinolinyl-5-amino)carbonyl-amino-(1-N-phenyl-3-t-butyl-pyrazol-5-yl)]-pyridin-5,6-imidazolone] |
| ≤ 1000 nM | ≤ 10 | ≤ 10 | O=C(Nc1ccc(Cl)c(C(F)(F)F)c1)Nc1ccc(Oc2ccnc3[nH]c(=O)[nH]c23)c2cccnc12 [AA-007, 4-[(5-Oxy-quinolinyl-8-amino)carbonylamino-(3-trifluoromethyl-4-chloro-phenyl)]-pyridin-5,6-imidazolone] |
| ≤ 1000 nM | ≤ 10 | ≤ 10 | O=C(Nc1cccc(C(F)(F)F)c1)Nc1ccc(Oc2ccnc3[nH]c(=O)[nH]c23)c2cccnc12 [AA-008, 4-[(5-Oxy-quinolinyl-8-amino)carbonylamino-(3-trifluoromethyl-phenyl)]-pyridin-5,6-imidazolone] |
| – | ≤ 10 | ≤ 10 | Cc1ccc(-n2nc(C(C)(C)C)cc2NC(=O)Nc2ccc(Oc3ccnc4[nH]c(=O)n(C)c34)c3cccnc23)cc1 [AA-011, 4-[(5-Oxy-quinolinyl-8-amino)carbonyl-amino-(1-N-p-tolyl-3-t-butyl-pyrazol-5-yl)]-pyridin-5-N-methyl,6-imidazolone] |
| ≤ 1000 nM | – | ≤ 10 | Cn1c(=O)[nH]c2c(Oc3ccc(NC(=O)Nc4cc(C(F)(F)F)ccc4F)c4ncccc34)ccnc21 [AA-013, 5-[(8-Amino-quinolinyl-5-oxy)carbonylamino-3-(2-fluoro-5-trifluoromethyl-phenyl)]-Pyridin-[2,3]-N-methylimidazol-2-one] |
